The half-life is the time needed for the level to fall by half in the phase considered. As a reminder, the efflux ratio is a quotient of directional permeabilities that is used to spot active efflux. For orientation: Papp A→B means the apparent permeability from the apical to the basolateral side of a cell layer. A high value points to ready permeation. A word on the Papp B→A: it is how fast a substance crosses the layer from the basolateral side.

The nature of data set [1]: Gamitrinib pharmacokinetics in rat plasma, single IV dose. The format is in vivo, Sprague-Dawley rats. The following applies: after IV Gamitrinib 5 mg/kg. Here is the method: Sprague-Dawley rats (n = 3) were administered with a single intravenous (IV) dose of 1 mL Gamitrinib (5 mg/kg) formulated as described above without added microfluidization. Blood samples were collected via lateral tail vein using K2EDTA as an anticoagulant at 0.083, 0.25, 0.5, 1, 2, 4, and 24 h post-dose, chilled on ice, and centrifuged at 5000 rpm for 10 min. Aliquots (0.2 mL) of each plasma sample were stored frozen at −20°C. For analysis, 50 µL aliquots of the study samples were mixed with 50 µL of ACN/H2O (50:50), extracted by protein precipitation using ACN containing the internal standard Gamitrinib-d15 (100 ng/mL), and the aliquots of the supernatant were mixed with deionized water for Gamitrinib determination. Batch samples under analysis included a calibration curve, a matrix blank (blank rat plasma), a reagent blank, a control zero (blank rat plasma spiked with internal standard), and duplicate QC samples at three concentration levels (low, medium, and high) in addition to the study samples. Within each batch, the study samples were bracketed by calibration standards or QC samples. The lowest calibration standard served to evaluate system suitability at the beginning of each batch. […] Overall, the concentration of Gamitrinib was measured in 21 rat plasma samples in 1 analytical batch using LC-MS/MS data acquisition on a Shimadzu Nexera LC system coupled with an AB Sciex Triple Quad 5500 mass spectrometer. Chromatograms were integrated using Analyst 1.6.2 software. A weighted (1/x^2, x = concentration) linear regression was used to generate the calibration curve for Gamitrinib. […] The mean, standard deviation, precision, accuracy, and assay variability were calculated using Microsoft Excel.

A short description of data set [2]: Phase I, cytochrome P450-mediated human liver microsome metabolism. A general note: Liver microsomes are a subcellular fraction often used to study metabolism.
A short description of data set [3]: in vitro. The following applies: human.
Data set [4] can be described thus: Bidirectional Caco2 cell monolayer permeability. The following applies: human. The method, then:
Caco-2 and HEK293 cells were obtained from the American Type Culture Collection (ATCC, Manassas, VA) and grown in culture according to the supplier’s specifications. In some experiments, HEK293 cells were stably transfected with hERG cDNA, and polyclonal cultures were maintained in the presence of 250 µg/ml geneticin (G418).
Bidirectional Caco2 cell monolayer permeability. Caco2 cells (2x10^4/well) were seeded onto apical chambers of a 24-multiwell insert plate and incubated at 37°C in 5% CO2. After 21 d, the transepithelial electrical resistance (TEER) in ohms was read for each insert well as a quality control for monolayer integrity (>900 ohms or 300 ohms cm^2). The cell monolayers were incubated with 400 µL transport buffer on the apical (A) and 1.2 mL on the basolateral (B) sides for 30 min. After preincubation, dosing solution was added to the apical (400 µL, A-to-B, donor) or basolateral sides (1.2 mL, B-to-A, donor) or receiving buffer to the apical (400 µL, B-to-A, receiver) or basolateral sides (1.2 mL, A-to-B, receiver) for 90 min at 37°C in 5% CO2. […] Papp’A>B (nm/s) was calculated with Equation 1.
Papp Efflux Ratio (ER) was calculated with Equation 2.
ER=Papp,B>APapp,A>BEquation 2: […]
Propranolol (high permeability marker, non-P-gp substate) and digoxin (P-gp substrate) were used as controls.
Background: Caco-2 monolayers are a common model of the intestinal barrier.

The mark [5] stands for this setting: Caco-2, Papp Efflux Ratio (ER), Papp,B>A / Papp,A>B.
The mark [6] stands for this setting: Caco-2, Papp, A>B, Caco2 monolayer, apical to basolateral.
Setting [7] is: Caco-2, Papp, B>A, Caco2 monolayer, basolateral to apical.
Setting [8] is: Caco-2, Pexact Efflux Ratio, Caco2 monolayer.
Setting [9] is: Caco-2, Pexact,A>B, Caco2 monolayer.
[10] abbreviates: Caco-2, Pexact,B>A, Caco2 monolayer.

On to `CO[C@H]1/C=C\C=C(/C)C(=O)NC2=CC(=O)C(N)=C(C[C@@H](C)C[C@H](OC)[C@H](O)[C@@H](C)/C=C(\C)[C@@H]1OC(N)=O)C2=O` [17-AG, 17-(amino)-17-demethoxygeldanamycin], for which the 17-AG plasma concentration entry is listed as “BLOQ” in data set [1] (animal 1, 5 min); 0.561 ng/mL in data set [1] (animal 1, 15 min); “BLOQ” in data set [1] (animal 1, 30 min); “BLOQ” in data set [1] (animal 1, 60 min); “BLOQ” in data set [1] (animal 1, 120 min); “BLOQ” in data set [1] (animal 1, 240 min). Besides, the 17-AG plasma concentration result in data set [1] (animal 1, 1440 min) is “BLOQ”; in data set [1] (animal 2, 5 min), 1.519 ng/mL; in data set [1] (animal 2, 15 min) it was “BLOQ”; in data set [1] (animal 2, 30 min), “BLOQ”; in data set [1] (animal 2, 60 min), “BLOQ”; in data set [1] (animal 2, 120 min), “BLOQ”. Besides, the 17-AG plasma concentration entry in data set [1] (animal 2, 240 min) is “BLOQ”; in data set [1] (animal 2, 1440 min), “BLOQ”; in data set [1] (animal 3, 5 min), 1.113 ng/mL; in data set [1] (animal 3, 15 min) it was “BLOQ”; in data set [1] (animal 3, 30 min) it was “BLOQ”; in data set [1] (animal 3, 60 min), “BLOQ”. For the same compound, the 17-AG plasma concentration entry is listed as “BLOQ” in data set [1] (animal 3, 120 min); “BLOQ” in data set [1] (animal 3, 240 min); “BLOQ” in data set [1] (animal 3, 1440 min).
For the compound `Cc1ncc2n1-c1ccc(Cl)cc1C(c1ccccc1F)=NC2` [Midazolam, reference compound], in data set [2] (0.5 µM, human liver microsomes), the “elimination rate constant (k)” value is given as 0.04 and the “intrinsic clearance (CLint)” value is given as 3.23 mL/min/g. In data set [2] (human, liver microsomes), this compound returned a half-life at 0.5 µM of 17 min.
Regarding `CC(=O)CC(c1ccccc1)c1c(O)c2ccccc2oc1=O` (stereo not shown) [warfarin], the recovery at 4 h, 2 µg/mL in data set [3] amounted to 88.3 ± 2.9%.
As for `C[C@H]1O[C@@H](O[C@H]2[C@@H](O)C[C@H](O[C@H]3[C@@H](O)C[C@H](O[C@H]4CC[C@@]5(C)[C@H](CC[C@@H]6[C@@H]5C[C@@H](O)[C@]5(C)[C@@H](C7=CC(=O)OC7)CC[C@]65O)C4)O[C@@H]3C)O[C@@H]2C)C[C@H](O)[C@@H]1O` [Digoxin], the efflux ratio at 90 min came to 21 in data set [4] (setting [5]) and 21.2 in data set [4] (setting [8]). Also, the Papp A→B at 90 min in data set [4] (setting [6]) is 0.547 ×10⁻⁶ cm/s; in data set [4] (setting [9]) it was 0.413 ×10⁻⁶ cm/s. Further, the Papp B→A at 90 min in data set [4] (setting [7]) amounted to 11.5 ×10⁻⁶ cm/s; in data set [4] (setting [10]) it was 8.76 ×10⁻⁶ cm/s.
As to `CC(C)NCC(O)COc1cccc2ccccc12` (stereo not shown) [Propranolol], the efflux ratio at 90 min in data set [4] (setting [5]) worked out at 0.87; in data set [4] (setting [8]), 0.81. For the same compound, the Papp A→B at 90 min in data set [4] (setting [6]) is 18.6 ×10⁻⁶ cm/s; in data set [4] (setting [9]), 20.9 ×10⁻⁶ cm/s. Moreover, the Papp B→A at 90 min in data set [4] (setting [7]) was 16.2 ×10⁻⁶ cm/s; in data set [4] (setting [10]), 17 ×10⁻⁶ cm/s.

Source of the values: publication PMC8820820, “Feasibility and safety of targeting mitochondria for cancer therapy – preclinical characterization of gamitrinib, a first-in-class, mitochondriaL-targeted small molecule Hsp90 inhibitor” (Cancer Biology & Therapy, 2022).
